The values below come from patent US9234000B2, “Benzylamine derivatives as inhibitors of plasma kallikrein” (KalVista Pharmaceuticals Limited, priority 2011, dated 2016).

SMILES strings stand for the structures. Where two headings read alike, the source gives them in different places.

One test addresses Human plasma kallikrein (Homo sapiens (Human), UniProt P03952). Nature of the test: Determination of the IC50 for plasma kallikrein. It is filed as biochemical. To be noted: 37° C., read-out: IC50 (human PKal). On the procedure: Determination of the IC50 for Plasma Kallikrein
Plasma kallikrein inhibitory activity in vitro was determined using standard published methods (see e.g. Johansen et al., Int. J. Tiss. Reac. 1986, 8, 185; Shori et al., Biochem. Pharmacol., 1992, 43, 1209; Stiirzebecher et al., Biol. Chem. Hoppe-Seyler, 1992, 373, 1025). Human plasma kallikrein (Protogen) was incubated at 37° C. with the fluorogenic substrate H-DPro-Phe-Arg-AFC and various concentrations of the test compound. Residual enzyme activity (initial rate of reaction) was determined by measuring the change in optical absorbance at 410 nm and the IC50 value for the test compound was determined.

A further test concerns the target Human KLK1 (Homo sapiens (Human), UniProt P06870). Kind of test: Determination of the IC50 for KLK1. It is filed as biochemical. The note with it: Human KLK1, 37° C., substrate H-DVal-Leu-Arg-AFC. Here is the method: Determination of the IC50 for KLK1
KLK1 inhibitory activity in vitro was determined using standard published methods (see e.g. Johansen et al., Int. J. Tiss. Reac. 1986, 8, 185; Shori et al., Biochem. Pharmacol., 1992, 43, 1209; Stürzebecher et al., Biol. Chem. Hoppe-Seyler, 1992, 373, 1025). Human KLK1 (Callbiochem) was incubated at 37° C. with the fluorogenic substrate H-DVal-Leu-Arg-AFC and various concentrations of the test compound. Residual enzyme activity (initial rate of reaction) was determined by measuring the change in optical absorbance at 410 nm and the IC50 value for the test compound was determined.

Where [1] appears, read: fluorogenic substrate H-DPro-Phe-Arg-AFC.

Sequence of Human KLK1 (P06870 25-262): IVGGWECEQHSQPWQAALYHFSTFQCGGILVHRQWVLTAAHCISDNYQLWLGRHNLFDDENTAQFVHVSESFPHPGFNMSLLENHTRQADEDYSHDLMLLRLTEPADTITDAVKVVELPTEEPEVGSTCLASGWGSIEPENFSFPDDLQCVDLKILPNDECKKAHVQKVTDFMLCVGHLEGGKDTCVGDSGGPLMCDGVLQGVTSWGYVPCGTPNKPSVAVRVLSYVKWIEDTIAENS
Sequence of Human plasma kallikrein (P03952 391-638): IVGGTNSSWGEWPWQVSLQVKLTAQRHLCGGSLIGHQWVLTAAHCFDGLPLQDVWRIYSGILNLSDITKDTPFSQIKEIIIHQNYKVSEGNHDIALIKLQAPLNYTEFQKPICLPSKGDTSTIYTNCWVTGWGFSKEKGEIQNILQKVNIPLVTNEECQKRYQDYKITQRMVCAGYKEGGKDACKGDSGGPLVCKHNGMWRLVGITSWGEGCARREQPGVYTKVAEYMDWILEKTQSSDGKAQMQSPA
Sequence of Human plasma kallikrein (P03952 20-390 partner): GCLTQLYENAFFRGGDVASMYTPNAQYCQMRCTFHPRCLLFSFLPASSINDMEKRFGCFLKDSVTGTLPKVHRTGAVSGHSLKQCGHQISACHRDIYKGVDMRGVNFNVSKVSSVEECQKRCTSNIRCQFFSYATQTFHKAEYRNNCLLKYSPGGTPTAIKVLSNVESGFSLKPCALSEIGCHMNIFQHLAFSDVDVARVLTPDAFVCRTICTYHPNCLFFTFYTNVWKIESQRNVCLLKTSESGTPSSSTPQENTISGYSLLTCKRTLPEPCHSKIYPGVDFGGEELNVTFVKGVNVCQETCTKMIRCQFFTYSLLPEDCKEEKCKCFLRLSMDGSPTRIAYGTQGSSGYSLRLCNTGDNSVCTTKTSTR

For `CC(C)C[C@@H](NCC(=O)O)C(=O)N[C@@H](Cc1ccccc1)C(=O)NCc1ccc(CN)cc1` [Example 28, {(R)-1-[(S)-1-(4-Aminomethyl-benzylcarbamoyl)-2-phenyl-ethylcarbamoyl]-3-methyl-butylamino}-acetic acid], the figures for the IC50 at Human plasma kallikrein (setting [1]) and against Human KLK1 (Table 12) were 8.9 µM and more than 10 µM, respectively.

As for `NCc1ccc(CNC(=O)[C@H](Cc2ccccc2)NC(=O)[C@@H](Cc2ccc(OCc3ccc(Cl)cc3)cc2)NC(=O)c2ccccc2)cc1` [Example 128, N-{(R)-1-[(S)-1-(4-Aminomethyl-benzylcarbamoyl)-2-phenyl-ethylcarbamoyl]-2-[4-(4-chloro-benzyloxy)-phenyl]-ethyl}-benzamide], the half-inhibitory concentration (IC50) (in general, the concentration that inhibits the measured activity by half) at Human plasma kallikrein (substrate H-DPro-Phe-Arg-AFC) is 2.01 µM; on Human KLK1 (Table 13), more than 10 µM.

Regarding `CCOc1ccc(C[C@@H](NC(=O)c2cncc(OC)c2)C(=O)N[C@@H](Cc2ccccc2)C(=O)NCc2ccc(CN)cc2)cc1` [Example 121, N-[(R)-1-[(S)-1-(4-Aminomethyl-benzylcarbamoyl)-2-phenyl-ethylcarbamoyl]-2-(4-ethoxy-phenyl)-ethyl]-5-methoxy-nicotinamide], the IC50 on Human plasma kallikrein (substrate H-DPro-Phe-Arg-AFC) was 0.31 µM; on Human KLK1 (Table 13), more than 10 µM.

For `CCOc1ccc(C[C@@H](NC(=O)c2ccccn2)C(=O)N[C@@H](Cc2ccccc2)C(=O)NCc2ccc(CN)c(F)c2)cc1` [Example 168, Pyridine-2-carboxylic acid [(R)-1-[(S)-1-(4-aminomethyl-3-fluoro-benzylcarbamoyl)-2-phenyl-ethylcarbamoyl]-2-(4-ethoxy-phenyl)-ethyl]-amide], the IC50 on Human plasma kallikrein (substrate H-DPro-Phe-Arg-AFC) was 0.076 µM; at Human KLK1 (Table 13) it was more than 10 µM.

As for `CCOc1ccc(C[C@@H](NC(=O)Nc2ccc(Cl)cc2)C(=O)N[C@@H](Cc2ccccc2)C(=O)NCc2ccc(CN)cc2)cc1` [Example 102, (R)-N-[(S)-1-(4-Aminomethyl-benzylcarbamoyl)-2-phenyl-ethyl]-2-[3-(4-chloro-phenyl)-ureido]-3-(4-ethoxy-phenyl)-propionamide], the results for the IC50 at Human plasma kallikrein (substrate H-DPro-Phe-Arg-AFC) and on Human KLK1 (Table 13) were 10 µM and 9 µM, respectively.

In the case of `Cc1ccc(C[C@@H](NC(=O)c2ccccc2)C(=O)N[C@@H](Cc2ccccc2)C(=O)NCc2ccc(CN)cc2)cc1` [Example 135, N-{(R)-1-[(S)-1-(4-Aminomethyl-benzylcarbamoyl)-2-phenyl-ethylcarbamoyl]-2-p-tolyl-ethyl}-benzamide], the figures for the IC50 at Human plasma kallikrein (substrate H-DPro-Phe-Arg-AFC) and against Human KLK1 (Table 13) were 0.424 µM and more than 10 µM, respectively.

For the molecule `CCOc1ccc(C[C@@H](NS(=O)(=O)Cc2ccccc2)C(=O)N[C@@H](Cc2ccccc2)C(=O)NCc2ccc(CN)cc2)cc1` [Example 100, (R)-N-[(S)-1-(4-Aminomethyl-benzylcarbamoyl)-2-phenyl-ethyl]-3-(4-ethoxy-phenyl)-2-phenylmethanesulfonylamino-propionamide], the IC50 on Human plasma kallikrein (substrate H-DPro-Phe-Arg-AFC) worked out at 0.474 µM; against Human KLK1 (Table 13), 2.9 µM.

On to `CCOc1ccc(C[C@@H](NC(=O)c2cc3ccccc3s2)C(=O)N[C@@H](Cc2ccccc2)C(=O)NCc2ccc(CN)cc2)cc1` [Example 83, Benzo[b]thiophene-2-carboxylic acid[(R)-1-[(S)-1-(4-aminomethyl-benzylcarbamoyl)-2-phenyl-ethylcarbamoyl]-2-(4-ethoxy-phenyl)-ethyl]-amide], for which the IC50 at Human plasma kallikrein (substrate H-DPro-Phe-Arg-AFC) was 0.254 µM; at Human KLK1 (Table 13), more than 10 µM.

Consider `CCOc1ccc(C[C@@H](NC(=O)c2sccc2OC)C(=O)N[C@@H](Cc2ccccc2)C(=O)NCc2ccc(CN)cc2)cc1` [Example 122, 3-Methoxy-thiophene-2-carboxylic acid [(R)-1-[(S)-1-(4-aminomethyl-benzylcarbamoyl)-2-phenyl-ethylcarbamoyl]-2-(4-ethoxy-phenyl)-ethyl]-amide], for which the IC50 at Human plasma kallikrein (substrate H-DPro-Phe-Arg-AFC) is 0.519 µM; at Human KLK1 (Table 13), 4.8 µM.

On to `NCc1ccc(CNC(=O)[C@H](Cc2ccccc2)NC(=O)[C@@H](Cc2ccc(Cl)cc2)NC(=O)c2ccccc2)cc1` [Example 127, N-[(R)-1-[(S)-1-(4-Aminomethyl-benzylcarbamoyl)-2-phenyl-ethylcarbamoyl]-2-(4-chloro-phenyl)-ethyl]-benzamide], for which the IC50 at Human plasma kallikrein (substrate H-DPro-Phe-Arg-AFC) is 0.521 µM; at Human KLK1 (Table 13) it was more than 10 µM.

Take `CCOc1ccc(C[C@@H](NC(=O)c2ccccc2)C(=O)N[C@@H](Cc2ccc(C(F)(F)F)cc2)C(=O)NCc2ccc(CN)cc2)cc1` [Example 148, N-[(R)-1-[(S)-1-(4-Aminomethyl-benzylcarbamoyl)-2-(4-trifluoromethyl-phenyl)-ethylcarbamoyl]-2-(4-ethoxy-phenyl)-ethyl]-benzamide]: the IC50 on Human plasma kallikrein (substrate H-DPro-Phe-Arg-AFC) was 0.934 µM; against Human KLK1 (Table 13) it was more than 10 µM.

For the molecule `COc1ccc(C[C@@H](NC(=O)c2ccccc2)C(=O)N[C@@H](Cc2ccccc2)C(=O)NCc2ccc(CN)cc2)cn1` [Example 137, N-[(R)-1-[(S)-1-(4-Aminomethyl-benzylcarbamoyl)-2-phenyl-ethylcarbamoyl]-2-(6-methoxy-pyridin-3-yl)-ethyl]-benzamide], the IC50 on Human plasma kallikrein (substrate H-DPro-Phe-Arg-AFC) is 7.54 µM; against Human KLK1 (Table 13), more than 10 µM.

Consider `CCOc1ccc(C[C@@H](NC(=O)c2ccccc2)C(=O)N[C@@H](Cc2ccncc2)C(=O)NCc2ccc(CN)cc2)cc1` [Example 147, N-[(R)-1-[(S)-1-(4-Aminomethyl-benzylcarbamoyl)-2-pyridin-4-yl-ethylcarbamoyl]-2-(4-ethoxy-phenyl)-ethyl]-benzamide], for which the values for the IC50 on Human plasma kallikrein (substrate H-DPro-Phe-Arg-AFC) and at Human KLK1 (Table 13) were 0.284 µM and more than 10 µM, respectively.

As for `CCOc1ccc(C[C@@H](NC(=O)c2ccc(OC(F)(F)F)cc2)C(=O)N[C@@H](Cc2ccccc2)C(=O)NCc2ccc(CN)cc2)cc1` [Example 80, N-[(R)-1-[(S)-1-(4-Aminomethyl-benzylcarbamoyl)-2-phenyl-ethylcarbamoyl]-2-(4-ethoxy-phenyl)-ethyl]-4-trifluoromethoxy-benzamide], the IC50 was 0.398 µM at Human plasma kallikrein (substrate H-DPro-Phe-Arg-AFC) and more than 10 µM on Human KLK1 (Table 13).

In the case of `CCOc1ccc(C[C@@H](NC(=O)c2ccccc2)C(=O)N[C@@H](Cc2ccccc2)C(=O)NCc2ccc(CN)c(C(F)(F)F)c2)cc1` [Example 156, N-[(R)-1-[(S)-1-(4-Aminomethyl-3-trifluoromethyl-benzylcarbamoyl)-2-phenyl-ethylcarbamoyl]-2-(4-ethoxy-phenyl)-ethyl]-benzamide], the IC50 on Human plasma kallikrein (substrate H-DPro-Phe-Arg-AFC) is 1.08 µM; against Human KLK1 (Table 13) it was more than 10 µM.

As for `CCOc1ccc(C[C@@H](NC(=O)CCCc2ccccc2)C(=O)N[C@@H](Cc2ccccc2)C(=O)NCc2ccc(CN)cc2)cc1` [Example 87, N-[(R)-1-[(S)-1-(4-Aminomethyl-benzylcarbamoyl)-2-phenyl-ethylcarbamoyl]-2-(4-ethoxy-phenyl)-ethyl]-4-phenyl-butyramide], the values for the IC50 at Human plasma kallikrein (substrate H-DPro-Phe-Arg-AFC) and against Human KLK1 (Table 13) were 0.755 µM and 3.4 µM, respectively.

In the case of `NCc1ccc(CNC(=O)[C@H](Cc2ccccc2)NC(=O)[C@@H](Cc2ccc(OCc3c(Cl)cccc3Cl)cc2)NC(=O)c2ccccc2)cc1` [Example 134, N-{(R)-1-[(S)-1-(4-Aminomethyl-benzylcarbamoyl)-2-phenyl-ethylcarbamoyl]-2-[4-(2,6-dichloro-benzyloxy)-phenyl]-ethyl}-benzamide], the IC50 on Human plasma kallikrein (substrate H-DPro-Phe-Arg-AFC) is 10 µM; against Human KLK1 (Table 13), more than 10 µM.

With `COC(=O)CN[C@H](CC1CCCCC1)C(=O)N[C@@H](Cc1ccccc1)C(=O)NCc1ccc(CN)cc1` [Example 47, {(R)-1-[(S)-1-(4-Aminomethyl-benzylcarbamoyl)-2-phenyl-ethylcarbamoyl]-2-cyclohexyl-ethylamino}-acetic acid methyl ester], the IC50 at Human plasma kallikrein (setting [1]) was 2.1 µM; at Human KLK1 (Table 12), more than 10 µM.

Regarding `NCc1ccc(CNC(=O)[C@H](Cc2ccccc2)NC(=O)[C@@H](Cc2ccc(O)cc2)NC(=O)c2ccccc2)cc1` [Example 129, N-[(R)-1-[(S)-1-(4-Aminomethyl-benzylcarbamoyl)-2-phenyl-ethylcarbamoyl]-2-(4-hydroxy-phenyl)-ethyl]-benzamide], the IC50 at Human plasma kallikrein (substrate H-DPro-Phe-Arg-AFC) was 10 µM; on Human KLK1 (Table 13) it was more than 10 µM.

On to `CCOc1ccc(C[C@@H](NC(=O)c2ccccc2Cl)C(=O)N[C@@H](Cc2ccccc2)C(=O)NCc2ccc(CN)cc2)cc1` [Example 89, N-[(R)-1-[(S)-1-(4-Aminomethyl-benzylcarbamoyl)-2-phenyl-ethylcarbamoyl]-2-(4-ethoxy-phenyl)-ethyl]-2-chloro-benzamide], for which the IC50 on Human plasma kallikrein (substrate H-DPro-Phe-Arg-AFC) stood at 0.099 µM; against Human KLK1 (Table 13), 3.7 µM.

As for `CN(CC(N)=O)[C@H](CC1CCCCC1)C(=O)N[C@@H](Cc1ccccc1)C(=O)NCc1ccc(CN)cc1` [Example 48, (R)-N-[(S)-1-(4-Aminomethyl-benzylcarbamoyl)-2-phenyl-ethyl]-2-(carbamoylmethyl-methyl-amino)-3-cyclohexyl-propionamide], the results for the IC50 at Human plasma kallikrein (setting [1]) and at Human KLK1 (Table 12) were 4.7 µM and more than 10 µM, respectively.

In the case of `CCOc1ccc(C[C@@H](NC(=O)CC)C(=O)N[C@@H](Cc2ccc(Cl)c(Cl)c2)C(=O)NCc2ccc(CN)cc2)cc1` [Example 16, (S)-N-(4-Aminomethyl-benzyl)-3-(3,4-dichloro-phenyl)-2-[(R)-3-(4-ethoxy-phenyl)-2-propionylamino-propionylamino]-propionamide], the IC50 at Human plasma kallikrein (setting [1]) amounted to 0.053 µM; against Human KLK1 (Table 12) it was 4.9 µM.
